According to ChEMBL document CHEMBL1137167, “Potent inhibition of checkpoint kinase activity by a hymenialdisine-derived indoloazepine” (Bioorg Med Chem Lett, 2004):

Key:
[1] = target: T1, Serine/threonine-protein kinase Chk1 (Homo sapiens, UniProt O14757); test: In vitro inhibitory concentration against checkpoint kinase 1 (Chk1) by using [gamma-33P]-ATP] as radioligand
T1 sequence (O14757 whole entry): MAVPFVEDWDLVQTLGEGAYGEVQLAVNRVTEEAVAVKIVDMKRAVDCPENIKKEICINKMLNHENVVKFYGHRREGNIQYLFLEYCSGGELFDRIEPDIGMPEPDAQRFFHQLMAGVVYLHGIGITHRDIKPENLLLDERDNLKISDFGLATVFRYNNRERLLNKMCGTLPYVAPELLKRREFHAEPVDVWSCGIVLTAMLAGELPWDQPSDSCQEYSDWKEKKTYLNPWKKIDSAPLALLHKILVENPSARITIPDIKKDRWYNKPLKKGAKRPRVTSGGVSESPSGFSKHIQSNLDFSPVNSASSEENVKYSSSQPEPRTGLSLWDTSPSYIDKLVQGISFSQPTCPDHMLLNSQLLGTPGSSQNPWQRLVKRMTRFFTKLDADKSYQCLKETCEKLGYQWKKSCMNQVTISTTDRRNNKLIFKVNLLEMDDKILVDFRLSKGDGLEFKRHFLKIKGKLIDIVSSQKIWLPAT

[2] = target: Protein kinase C alpha type (Homo sapiens, UniProt P17252); test: In vitro inhibitory concentration against human protein kinase C alpha (PKCa) by using [gamma-33P]-ATP] as radioligand
[3] = target: Casein kinase II subunit alpha (Homo sapiens, UniProt P68400); test: In vitro inhibitory concentration against human casein kinase 2 (CK2) by using [gamma-33P]-ATP] as radioligand
[4] = target: Serine/threonine-protein kinase Chk2 (Homo sapiens, UniProt O96017); test: In vitro inhibitory concentration against checkpoint kinase 2 (Chk2) by using [gamma-33P]-ATP] as radioligand
[5] = target: Protein kinase C beta type (Homo sapiens, UniProt P05771); test: In vitro inhibitory concentration against human protein kinase C beta-2 (PKCbetaII) by using [gamma-33P]-ATP] as radioligand
[6] = target: Casein kinase I isoform delta (Homo sapiens, UniProt P48730); test: In vitro inhibitory concentration against human casein kinase 1 delta (CK1 delta) by using [gamma-33P]-ATP] as radioligand
Sequence of Casein kinase I isoform delta (P48730 whole entry, canonical isoform): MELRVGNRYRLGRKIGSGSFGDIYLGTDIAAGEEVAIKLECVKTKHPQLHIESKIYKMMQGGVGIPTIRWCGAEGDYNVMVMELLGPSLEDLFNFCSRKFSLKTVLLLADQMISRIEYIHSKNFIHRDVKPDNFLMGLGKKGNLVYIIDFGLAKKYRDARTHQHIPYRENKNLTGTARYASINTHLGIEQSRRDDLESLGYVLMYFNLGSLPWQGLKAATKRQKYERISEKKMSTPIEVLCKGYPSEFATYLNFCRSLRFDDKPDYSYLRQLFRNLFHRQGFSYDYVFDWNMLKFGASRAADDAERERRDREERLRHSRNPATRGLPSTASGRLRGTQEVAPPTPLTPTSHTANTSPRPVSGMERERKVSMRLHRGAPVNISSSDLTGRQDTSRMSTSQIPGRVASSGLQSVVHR

Sequence of Serine/threonine-protein kinase Chk2 (O96017 whole entry): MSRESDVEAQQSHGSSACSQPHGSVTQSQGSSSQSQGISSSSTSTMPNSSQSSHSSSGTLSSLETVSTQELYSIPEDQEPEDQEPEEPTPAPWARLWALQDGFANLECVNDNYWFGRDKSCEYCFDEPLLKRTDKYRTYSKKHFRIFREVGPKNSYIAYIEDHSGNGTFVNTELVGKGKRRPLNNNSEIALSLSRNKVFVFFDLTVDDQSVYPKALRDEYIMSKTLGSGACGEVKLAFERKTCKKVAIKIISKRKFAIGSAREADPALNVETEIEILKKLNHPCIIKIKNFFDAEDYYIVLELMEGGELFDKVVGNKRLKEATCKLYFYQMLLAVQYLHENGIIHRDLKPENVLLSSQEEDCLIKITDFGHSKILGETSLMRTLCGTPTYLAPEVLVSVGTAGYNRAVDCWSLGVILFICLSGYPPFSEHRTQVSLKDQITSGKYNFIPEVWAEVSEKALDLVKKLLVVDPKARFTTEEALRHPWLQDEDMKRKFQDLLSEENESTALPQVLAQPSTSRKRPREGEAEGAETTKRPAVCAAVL
Sequence of Casein kinase II subunit alpha (P68400 whole entry): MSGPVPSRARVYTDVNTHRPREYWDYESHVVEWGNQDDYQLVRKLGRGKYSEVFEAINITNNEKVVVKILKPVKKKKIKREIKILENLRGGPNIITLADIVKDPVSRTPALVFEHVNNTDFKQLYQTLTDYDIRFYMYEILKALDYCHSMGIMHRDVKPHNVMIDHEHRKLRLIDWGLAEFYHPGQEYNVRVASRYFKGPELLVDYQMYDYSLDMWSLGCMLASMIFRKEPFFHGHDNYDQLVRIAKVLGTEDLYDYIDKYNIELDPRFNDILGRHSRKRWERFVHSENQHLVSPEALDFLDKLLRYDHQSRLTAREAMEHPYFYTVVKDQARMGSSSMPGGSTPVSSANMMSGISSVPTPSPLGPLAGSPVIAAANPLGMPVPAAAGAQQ
Sequence of Protein kinase C beta type (P05771 whole entry, canonical isoform): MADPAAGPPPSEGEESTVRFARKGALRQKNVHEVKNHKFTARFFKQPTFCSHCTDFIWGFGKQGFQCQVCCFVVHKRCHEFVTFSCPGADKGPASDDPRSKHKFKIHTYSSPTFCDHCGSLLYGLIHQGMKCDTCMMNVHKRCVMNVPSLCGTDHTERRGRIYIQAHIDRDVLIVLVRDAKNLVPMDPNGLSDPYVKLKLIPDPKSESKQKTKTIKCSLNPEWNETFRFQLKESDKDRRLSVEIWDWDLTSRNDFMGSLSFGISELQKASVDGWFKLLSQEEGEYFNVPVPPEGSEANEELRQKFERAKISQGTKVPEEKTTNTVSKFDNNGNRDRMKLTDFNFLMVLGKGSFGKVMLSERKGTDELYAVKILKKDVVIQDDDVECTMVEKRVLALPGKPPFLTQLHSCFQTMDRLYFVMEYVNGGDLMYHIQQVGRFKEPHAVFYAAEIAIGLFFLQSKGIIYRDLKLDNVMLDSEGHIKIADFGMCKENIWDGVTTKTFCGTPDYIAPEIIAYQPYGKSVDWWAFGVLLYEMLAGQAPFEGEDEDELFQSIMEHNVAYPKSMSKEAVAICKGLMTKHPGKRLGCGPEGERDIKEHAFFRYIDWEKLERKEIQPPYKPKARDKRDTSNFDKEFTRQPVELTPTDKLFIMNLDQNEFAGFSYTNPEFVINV

IC50 [1] [nM]	IC50 [2] [nM]	IC50 [3] [nM]	IC50 [4] [nM]	IC50 [5] [nM]	IC50 [6] [nM]	Compound
237	2540	> 10000	8	3380	1350	Nc1nc(C2=C3C(=Nc4ccccc43)C(=O)NCC2)c(O)[nH]1
725			183			NC1=N/C(=C2/CCNC(=O)c3[nH]ccc32)C(=O)N1 [DEBROMOHYMENIALDISINE]
1950		7000	42		35	NC1=NC(=O)/C(=C2\CCNC(=O)c3[nH]c(Br)cc32)N1 [HYMENIALDISINE]
